From US12012408B2, “Purine compounds and method for the treatment of cancer” (THE ROYAL INSTITUTION FOR THE ADVANCEMENT OF …, priority 2018, dated 2024) come the findings set out here.

Experiment [1] concerns MDA-MB-231 and BT-20 cells. The experiment can be described thus: MTT assay (short-term cell viability). Type of experiment: cell-based. As to the method: The short-term effects of SLLN-15 on tumor cell growth were assessed using the 3-(4,5-dimethylthiazol-2-yl)-2,5-diphenylte-trazolium bromide (MTT; Sigma) assay. Cells were seeded at a density of 5000 cells/well in a 96-well plate and treated with SLLN-15 as indicated concentration or DMSO for 24 hours. MTT solution (5 mg/ml in RPMI 1640 medium) was added (20 μl/well), and plates were incubated for 4 hours in dark at 37° C., then the purple formazan crystals were then dissolved in 100 μl MTT solvent (4 mM HCl and 0.1% NP-40 in isopropanol). The plates were read on FLUOstar OPTIMA microplate reader (BMG Labtech, Ortenberg, Germany) at 570 nm. Assays were performed in triplicate on three independent experiments.
(In general: Tetrazolium dyes change colour on reduction, which living cells bring about.)

Experiment [2] relates to Aurora A, Aurora B, Aurora C in MDA-MB-231 and BT-20 cells. The experiment can be described thus: Western blot of cellular Aurora kinase phosphorylation and expression. The class given is cell-based. How it is done: (§1) Sub-confluent cells were washed with PBS, lysed in RIPA buffer (50 mM Tris-HCl at pH7.5, 150 mM sodium chloride, 1% tritonX-100, 0.1% SDS, 2 mM EDTA and 25 mM sodium fluoride) supplemented with 1 mM PMSF and protease inhibitor cocktail (Roche) for 10 min on ice and centrifuged (13,000 rpm at 4° C. for 20 min) to separate cell lysate. Cell lysate (50 μg protein, as measured by the Bradford protein assay) was then added with SDS sample buffer (Tris at pH 6.8, 20% glycerol, 5% SDS, bromophenol blue and β-mercaptoethanol) and boiled for 5 min. Samples were then resolved through 13% SDS-PAGE gels, transferred to nitrocellulose membrane, blotted with specific first antibodies at different dilution in cold room overnight, and then amplified with horseradish peroxidase-conjugated secondary antibodies for 1 hour in room temperature and enhanced by chemiluminescence detection system.
(§2) To further evaluate cellular Aurora kinase inhibitory activity of SLLN-15, western blot analysis was carried out in both MDA-MB-231 and BT-20 cell lines. […] To gain further insight into the mechanism underlying the regulation of Aurora A and B by SLLN-15, we next examined whether Aurora A and B were degraded via the proteasome pathway.
For orientation: A western blot detects proteins with antibodies after separation by electrophoresis.

The subject of experiment [3] is MDA-MB-231 and BT-20 cells. The experiment can be described thus: Propidium iodide staining and flow cytometry of DNA content. The class given is cell-based. The settings on record: treatment for 24 hours; FIG. 6C. How it is done:
Cells were seeded into six-well plates and treated with the indicated concentration of SLLN-15 for 24 hours. After harvesting, cells were fixed in 80% methanol at −20° C. overnight. The fixed cells were washed twice with cold phosphate-buffered saline (PBS), incubated for 1 hour with 0.1% Triton X-100 and 0.5 μg/ml RNase A, and then stained with propidium iodide (PI) (Sigma) at a final concentration of 10 μg/ml in the dark at 4° C. until analysis. The fluorescent signal was detected through the FL-2 channel using FACSCalibur flow cytometry (Becton Dickson), and the proportion of DNA in various phases was analyzed using FCS Express version 3.0 (De novo Software, Glendale, California, USA)

The target of a further experiment is Janus kinase 2 (JAK2) (Homo sapiens, UniProt O60674). The experiment can be described thus: SelectScreen kinase profiling (Invitrogen), high-throughput screening against a panel of kinases. Type of experiment: biochemical. The conditions noted are these: 100 nM screening concentration. How it is done:
(§3) FIG. S3A represents the SelectScreen kinase profiling (Invitrogen) results obtained against a panel of kinases for SLLN-15 at 100 nM.
as §2

For another experiment, the target named is T1, Aurora kinase A (Homo sapiens, UniProt O14965).
T1 sequence (O14965 1-403): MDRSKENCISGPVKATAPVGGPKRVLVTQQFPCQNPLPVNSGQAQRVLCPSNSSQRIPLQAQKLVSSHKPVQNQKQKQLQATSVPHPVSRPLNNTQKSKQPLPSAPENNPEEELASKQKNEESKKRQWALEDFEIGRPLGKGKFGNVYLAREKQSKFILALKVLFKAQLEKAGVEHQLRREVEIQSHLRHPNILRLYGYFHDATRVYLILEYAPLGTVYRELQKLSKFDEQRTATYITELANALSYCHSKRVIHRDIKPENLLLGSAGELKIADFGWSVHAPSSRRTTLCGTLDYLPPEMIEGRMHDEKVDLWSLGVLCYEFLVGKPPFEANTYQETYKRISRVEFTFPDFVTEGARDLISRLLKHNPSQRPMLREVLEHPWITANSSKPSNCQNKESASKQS
The description is as above. The class given is biochemical. The settings on record: 100 nM screening concentration. How it is done:
as §3, §2

For experiment [4], the system named is cleaved-PARP, cleaved-caspase 3, Bcl-2 in MDA-MB-231 and BT-20 cells. The experiment can be described thus: Western blot of indicators of apoptosis. Type of experiment: cell-based. How it is done:
as §1
Considering apoptosis is the major form of cell death induced by chemotherapeutic agent, we seek to identify whether the anticancer effect of SLLN-15 was mediated via apoptosis in breast cancer cells.

Experiment [5] deals with Akt/mTOR pathway in MDA-MB-231 and BT-20 cells. The experiment can be described thus: Western blot of the Akt/mTOR pathway. The settings on record: FIG. 4A. The class given is cell-based. As to the method: as §1
The PI3K/Akt/mTOR pathway is a well-established pathway that is frequently activated in cancer cells and acts as a key negative regulator of autophagy (Schmelzle T et al. TOR, a central controller of cell growth Cell 2000; 103:253-62; Shi J et al. IL10 inhibits starvation-induced autophagy in hypertrophic scar fibroblasts via cross talk between the IL10-IL10R-STAT3 and IL10-AKT-mTOR pathways Cell Death Dis 2016; 7:e2133). […]

Experiment [6] has as its system MDA-MB-231 and BT-20 cells. The experiment can be described thus: BrdU labeling cell proliferation assay. Type of experiment: cell-based. The settings on record: FIG. 6D. As to the method: The proliferation effects of SLLN-15 were assessed using the bromodeoxyuridine (BrdU) Cell proliferation Assay Kit (Biovision). Cells were seeded at a density of 5000 cells/well in a 96-well plate and treated with SLLN-15 or rapamycin (Cayman chemical) as indicated concentration or DMSO for 24 hours. The plates were read on FLUOstar OPTIMA microplate reader (BMG Labtech, Ortenberg, Germany) at 450 nm. Assays were performed in triplicate on three independent experiments.
A general note: Dividing cells build labelled thymidine or BrdU into new DNA.

SMILES strings stand for the structures.

Sequence of Janus kinase 2 (JAK2) (O60674 whole entry): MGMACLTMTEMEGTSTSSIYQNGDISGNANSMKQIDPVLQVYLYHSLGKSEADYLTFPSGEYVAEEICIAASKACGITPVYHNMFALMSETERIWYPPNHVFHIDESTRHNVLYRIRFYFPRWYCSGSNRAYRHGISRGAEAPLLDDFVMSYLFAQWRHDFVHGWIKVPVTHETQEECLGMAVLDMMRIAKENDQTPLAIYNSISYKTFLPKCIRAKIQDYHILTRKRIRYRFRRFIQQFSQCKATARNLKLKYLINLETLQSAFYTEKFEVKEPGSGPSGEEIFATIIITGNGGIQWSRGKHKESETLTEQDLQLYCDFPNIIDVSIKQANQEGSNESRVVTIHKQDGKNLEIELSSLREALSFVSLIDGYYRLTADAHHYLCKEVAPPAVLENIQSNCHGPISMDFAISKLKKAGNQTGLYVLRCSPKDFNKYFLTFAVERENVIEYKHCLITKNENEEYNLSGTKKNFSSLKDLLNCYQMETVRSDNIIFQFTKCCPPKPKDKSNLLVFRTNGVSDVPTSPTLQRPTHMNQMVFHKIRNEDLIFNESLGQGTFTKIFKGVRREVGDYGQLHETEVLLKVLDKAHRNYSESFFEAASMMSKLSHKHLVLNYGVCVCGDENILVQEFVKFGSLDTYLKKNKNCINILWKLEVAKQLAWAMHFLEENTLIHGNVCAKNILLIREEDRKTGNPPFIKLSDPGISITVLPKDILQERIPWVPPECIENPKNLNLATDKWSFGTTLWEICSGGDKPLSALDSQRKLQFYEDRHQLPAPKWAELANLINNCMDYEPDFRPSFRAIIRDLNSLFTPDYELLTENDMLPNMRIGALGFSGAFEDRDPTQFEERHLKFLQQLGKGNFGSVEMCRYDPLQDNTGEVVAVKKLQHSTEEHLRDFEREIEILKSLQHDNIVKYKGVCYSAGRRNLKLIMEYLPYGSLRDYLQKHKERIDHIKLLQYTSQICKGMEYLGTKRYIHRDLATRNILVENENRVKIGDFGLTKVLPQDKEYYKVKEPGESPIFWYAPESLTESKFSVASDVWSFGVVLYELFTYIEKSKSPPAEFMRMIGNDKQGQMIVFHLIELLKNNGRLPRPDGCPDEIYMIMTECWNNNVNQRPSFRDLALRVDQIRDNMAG

As for `c1nc2nc(Nc3ccc(N4CC[Se]CC4)cc3)nc(N[C@H]3CC[Se]C3)c2[nH]1` [SLLN-15], the “short-term and long-term cell viability (MTT and clonogenic assay)” value in experiment [1] (SLLN-15 in presence of autophagy inhibitor 3-MA, FIGS. 5D and E) is “rescued both short-term and long-term cell viability”. In experiment [1] (time-dependent, SLLN-15 compared with vorinostat, FIG. 6A), the “cell viability (MTT)” value is recorded as “markedly decreased cell viability”. Further, in experiment [1] (treatment for 24 hours, dose-dependent, FIG. 1C), the “overall cell viability (MTT)” value is “markedly decreased overall cell viability”. Moreover, the “phosphorylation of Aurora A at Thr288, Aurora B at Thr232, Aurora C at Thr198” value in experiment [2] (1 μM, FIG. 7A) was “strongly inhibited phosphorylation of both Aurora A at Thr288 and B at Thr232 but not Aurora C at Thr198”. In experiment [2] (BT-20 cells, 6 hours post-treatment, FIG. 7C), the “expression of Aurora A over time” value is recorded as “downregulated the expression of Aurora A at earlier time points”. The “Aurora A and Aurora B expression” value in experiment [2] (dose-dependent, FIG. 7A) is “decreased both Aurora A and Aurora B expression”. For the same molecule, in experiment [3], the “apoptosis (sub-G1 phase)” value was “no obvious apoptosis”; the “cells arrested in G2/M phase and polyploidy (>4N)” value is “significantly higher percentage”. The “inhibition of Janus kinase 2 (JAK2)” value against Janus kinase 2 (JAK2) is on record as 85%. The “inhibition of Aurora kinase A” value on Aurora kinase A was 91%. In addition, in experiment [4] (FIG. 6B), the “indicators of apoptosis: upregulation of cleaved-PARP and cleaved-caspase 3, downregulation of Bcl-2” value is given as “not SLLN-15 treated cells”. Besides, the apoptosis result in experiment [4] (up to 48 hours post-exposure, breast cancer cells) is recorded as “no significant apoptosis was observed”. The “phosphorylation levels of Akt, mTOR, p70S6K, S6 and 4EBP1” value in experiment [5] is “decreased phosphorylation levels”. In experiment [6], the “anti-proliferation potency compared to rapamycin” value is “more potent anti-proliferation agents”. In addition, the BrdU-positive cells entry in experiment [6] (dose-dependent) was “lower percentage of BrdU-positive cells”.
